18 compounds from patent US12447153B2, “HER2 mutation inhibitors” (Array BioPharma Inc., priority 2021, dated 2025) can be followed below.

The term IC50 denotes the midpoint of a concentration-inhibition curve. Read a low IC50 as greater potency.

Structures are written as SMILES.

The target in one data set is BCRP (Homo sapiens (Human), UniProt Q9UNQ0). The data set can be described thus: BCRP MDCKII efflux assay (Assay 7). It counts as in vitro ADME. Particulars: dog; efflux ratio Papp(B-A)/Papp(A-B), BCRP MDCKII cells; read-out: Assay 7 Pe Ratio. On the procedure: Assay conditions included with and without the BCRP-specific inhibitor, KO143, at a concentration of 0.3 μM to ascertain the contribution of BCRP to the efflux value of the test compound.
Final organic concentration in the assay was 1%.

Another data set has as its target EGFR wild type (EGFR WT) (Homo sapiens (Human), UniProt P00533). The data set can be described thus: Cellular Phosphorylation Assay, Assay 5 (EGF-stimulated EGFR phosphorylation, NIH 3T3 cells). It counts as cell-based.
For another data set, the target named is MDR1 (P-gp) (Homo sapiens (Human), UniProt P08183). Nature of the data set: in vitro. Particulars: pig, LLC-PK1.
Chain of MDR1 (P-gp) (P08183 whole entry): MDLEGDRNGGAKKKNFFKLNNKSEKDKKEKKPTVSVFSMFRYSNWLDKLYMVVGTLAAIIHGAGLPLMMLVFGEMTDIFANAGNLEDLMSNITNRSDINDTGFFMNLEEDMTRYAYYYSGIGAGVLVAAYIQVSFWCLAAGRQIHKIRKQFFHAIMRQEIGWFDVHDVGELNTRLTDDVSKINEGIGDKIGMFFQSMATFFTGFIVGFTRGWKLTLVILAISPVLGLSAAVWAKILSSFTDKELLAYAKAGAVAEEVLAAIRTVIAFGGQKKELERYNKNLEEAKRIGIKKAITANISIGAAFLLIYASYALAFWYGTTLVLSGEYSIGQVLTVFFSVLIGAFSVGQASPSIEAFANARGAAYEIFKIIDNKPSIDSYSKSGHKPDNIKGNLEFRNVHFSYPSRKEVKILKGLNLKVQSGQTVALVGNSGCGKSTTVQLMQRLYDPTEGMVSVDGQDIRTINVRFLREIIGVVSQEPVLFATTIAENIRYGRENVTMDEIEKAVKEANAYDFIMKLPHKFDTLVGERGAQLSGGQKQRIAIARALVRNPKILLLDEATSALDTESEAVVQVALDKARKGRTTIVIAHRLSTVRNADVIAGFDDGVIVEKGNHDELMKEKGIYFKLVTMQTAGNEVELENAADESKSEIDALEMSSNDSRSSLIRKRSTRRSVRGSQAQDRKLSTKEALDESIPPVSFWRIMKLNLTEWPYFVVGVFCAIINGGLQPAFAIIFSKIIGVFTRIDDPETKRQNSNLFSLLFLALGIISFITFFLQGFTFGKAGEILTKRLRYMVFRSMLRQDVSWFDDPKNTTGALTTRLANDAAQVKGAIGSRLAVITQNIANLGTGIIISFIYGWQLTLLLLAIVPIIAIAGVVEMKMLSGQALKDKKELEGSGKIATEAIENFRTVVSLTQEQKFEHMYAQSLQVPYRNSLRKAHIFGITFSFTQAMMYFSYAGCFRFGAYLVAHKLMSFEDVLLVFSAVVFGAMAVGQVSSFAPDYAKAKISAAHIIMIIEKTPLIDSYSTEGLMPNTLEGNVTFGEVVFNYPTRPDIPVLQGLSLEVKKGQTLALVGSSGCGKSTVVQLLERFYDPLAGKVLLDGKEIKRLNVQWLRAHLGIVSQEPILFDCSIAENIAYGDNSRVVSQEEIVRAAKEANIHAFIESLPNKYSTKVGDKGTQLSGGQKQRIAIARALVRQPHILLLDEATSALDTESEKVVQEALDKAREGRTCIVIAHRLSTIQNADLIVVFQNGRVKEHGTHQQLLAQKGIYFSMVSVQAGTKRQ
Data set [1] deals with ErbB2 with Exon 20 YVMA insertion (HER2-YVMA) (Homo sapiens (Human), UniProt P04626, INS775YVMA). The data set can be described thus: Cellular Phosphorylation Assay, Assay 4 (constitutive ErbB2 phosphorylation, NIH 3T3 cells). Type of data set: cell-based.
Chain of ErbB2 with Exon 20 YVMA insertion (HER2-YVMA) (P04626 other isoform, or with tags, fused parts or gaps ins YVMA behind 775): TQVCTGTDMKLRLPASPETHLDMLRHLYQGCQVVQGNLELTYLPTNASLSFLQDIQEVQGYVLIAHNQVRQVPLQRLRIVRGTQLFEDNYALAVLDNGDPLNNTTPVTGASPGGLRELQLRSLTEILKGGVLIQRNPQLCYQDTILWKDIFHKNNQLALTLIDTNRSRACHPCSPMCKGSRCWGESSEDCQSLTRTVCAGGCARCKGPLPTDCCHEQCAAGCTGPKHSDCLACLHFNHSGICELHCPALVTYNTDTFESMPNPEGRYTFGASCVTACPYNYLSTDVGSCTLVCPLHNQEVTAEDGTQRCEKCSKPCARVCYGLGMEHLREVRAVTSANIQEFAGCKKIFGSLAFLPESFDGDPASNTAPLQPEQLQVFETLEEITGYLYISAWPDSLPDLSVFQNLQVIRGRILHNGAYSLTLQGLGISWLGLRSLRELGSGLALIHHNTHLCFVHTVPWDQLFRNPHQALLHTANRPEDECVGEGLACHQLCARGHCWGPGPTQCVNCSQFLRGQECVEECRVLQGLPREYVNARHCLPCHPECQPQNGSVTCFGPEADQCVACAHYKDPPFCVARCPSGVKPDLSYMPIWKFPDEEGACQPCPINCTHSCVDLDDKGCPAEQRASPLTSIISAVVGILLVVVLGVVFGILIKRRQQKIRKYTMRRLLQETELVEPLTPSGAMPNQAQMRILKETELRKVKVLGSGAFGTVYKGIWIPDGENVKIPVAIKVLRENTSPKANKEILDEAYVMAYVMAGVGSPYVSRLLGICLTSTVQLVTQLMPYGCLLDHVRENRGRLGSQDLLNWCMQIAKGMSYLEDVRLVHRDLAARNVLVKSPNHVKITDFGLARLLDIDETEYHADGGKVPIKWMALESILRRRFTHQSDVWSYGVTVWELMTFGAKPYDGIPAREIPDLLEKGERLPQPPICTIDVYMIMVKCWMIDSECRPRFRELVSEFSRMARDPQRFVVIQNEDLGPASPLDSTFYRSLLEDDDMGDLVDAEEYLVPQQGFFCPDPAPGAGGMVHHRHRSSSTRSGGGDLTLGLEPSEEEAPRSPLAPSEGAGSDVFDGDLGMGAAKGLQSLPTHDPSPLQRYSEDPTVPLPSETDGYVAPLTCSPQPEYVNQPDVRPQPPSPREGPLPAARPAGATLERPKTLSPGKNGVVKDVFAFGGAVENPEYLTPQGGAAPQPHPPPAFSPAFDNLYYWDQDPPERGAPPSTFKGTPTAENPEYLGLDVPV
A further data set concerns the target ErbB2 WT (Homo sapiens (Human), UniProt P04626). The data set can be described thus: ErbB Enzyme Assay (HTRF KinEASE-TK), Assay 2. It counts as biochemical.
For the next data set, the target named is EGFR (Homo sapiens (Human), UniProt P00533). Nature of the data set: ErbB Enzyme Assay (HTRF KinEASE-TK), Assay 3. Type of data set: biochemical. A general note: TR-FRET usually uses a lanthanide donor and a delayed reading to cut background.
Chain of EGFR (P00533 25-1210): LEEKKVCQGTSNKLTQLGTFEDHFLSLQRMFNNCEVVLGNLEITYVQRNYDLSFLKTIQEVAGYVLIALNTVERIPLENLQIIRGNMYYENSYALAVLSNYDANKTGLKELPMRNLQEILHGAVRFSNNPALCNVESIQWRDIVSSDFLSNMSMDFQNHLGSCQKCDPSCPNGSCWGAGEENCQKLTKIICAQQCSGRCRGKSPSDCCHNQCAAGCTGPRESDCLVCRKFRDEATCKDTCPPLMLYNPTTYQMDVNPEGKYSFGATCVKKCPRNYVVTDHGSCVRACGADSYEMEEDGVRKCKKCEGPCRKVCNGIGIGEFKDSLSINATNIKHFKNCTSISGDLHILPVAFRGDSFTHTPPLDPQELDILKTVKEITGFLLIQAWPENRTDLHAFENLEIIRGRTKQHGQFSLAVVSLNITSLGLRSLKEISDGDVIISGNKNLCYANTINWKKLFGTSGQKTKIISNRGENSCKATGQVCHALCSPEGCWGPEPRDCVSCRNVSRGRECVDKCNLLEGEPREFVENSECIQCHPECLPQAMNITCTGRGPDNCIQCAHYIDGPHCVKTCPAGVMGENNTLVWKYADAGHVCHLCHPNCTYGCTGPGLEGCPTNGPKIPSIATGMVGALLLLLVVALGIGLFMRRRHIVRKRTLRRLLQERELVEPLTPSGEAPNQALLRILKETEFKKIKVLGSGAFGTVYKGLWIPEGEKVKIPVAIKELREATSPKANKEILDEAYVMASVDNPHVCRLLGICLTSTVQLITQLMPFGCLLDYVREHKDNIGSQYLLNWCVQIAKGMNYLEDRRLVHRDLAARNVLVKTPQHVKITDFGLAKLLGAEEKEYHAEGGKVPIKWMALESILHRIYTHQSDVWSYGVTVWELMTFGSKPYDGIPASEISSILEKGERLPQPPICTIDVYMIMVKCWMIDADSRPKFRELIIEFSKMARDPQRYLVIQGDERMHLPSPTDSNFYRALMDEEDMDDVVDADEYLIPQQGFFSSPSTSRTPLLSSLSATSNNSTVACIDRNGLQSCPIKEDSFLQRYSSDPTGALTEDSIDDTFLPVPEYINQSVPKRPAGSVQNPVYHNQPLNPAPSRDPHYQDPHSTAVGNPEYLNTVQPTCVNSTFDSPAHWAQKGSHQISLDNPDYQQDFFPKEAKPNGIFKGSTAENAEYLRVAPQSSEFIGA
The mark [2] stands for this setting: EGF-stimulated EGFR WT phosphorylation.
Where [3] appears, read: cellular EGFR WT phosphorylation, EGF-stimulated.
Where [4] appears, read: cellular ErbB2 YVMA phosphorylation.

Chain of EGFR wild type (EGFR WT) (P00533 25-1210): as above

On to `C=CC(=O)N1[C@H](C)CN(c2ccc3ncnc(Nc4cc(C)c(Oc5ccc6c(c5)ncn6C)cc4F)c3n2)C[C@@H]1C` [Example 112, 1-((2S,6R)-4-(4-((2-fluoro-5-methyl-4-((1-methyl-1H-benzo[d]imidazol-5-yl)oxy)phenyl)amino)pyrido[3,2-d]pyrimidin-6-yl)-2,6-dimethylpiperazin-1-yl)prop-2-en-1-one], for which the figures for the efflux ratio at 2 h, 1 µM at BCRP and on MDR1 (P-gp) were 5.2 and 1.4, respectively. For the same compound, the 50% inhibitory concentration (IC50) against EGFR wild type (EGFR WT) (setting [2]) was at least 5000 nM; in data set [1] (ErbB2 YVMA phosphorylation) it was 19.8 nM; on ErbB2 WT (ErbB2 WT enzyme), 57.5 nM; at EGFR (EGFR enzyme), 3330 nM.

On to `C=CC(=O)N1CCN(c2ccc3ncnc(Nc4ccc(Oc5cnc6c(c5)ncn6C)c(C)c4F)c3n2)C[C@@H]1C1CC1` [Example 167, (S)-1-(2-cyclopropyl-4-(4-((2-fluoro-3-methyl-4-((3-methyl-3H-imidazo[4,5-b]pyridin-6-yl)oxy)phenyl)amino)pyrido[3,2-d]pyrimidin-6-yl)piperazin-1-yl)prop-2-en-1-one], for which the efflux ratio at 2 h, 1 µM on BCRP was 1.7; at MDR1 (P-gp), 0.9. Besides, the IC50 was at least 5000 nM at EGFR wild type (EGFR WT) (setting [2]), 25.1 nM in data set [1] (ErbB2 YVMA phosphorylation), 519 nM against ErbB2 WT (ErbB2 WT enzyme) and at least 10000 nM against EGFR (EGFR enzyme).

For the compound `C=CC(=O)N1C[C@@H]2C[C@H](c3ccc4ncnc(Nc5cc(C)c(Oc6ccc7c(c6)ncn7C)cc5F)c4n3)C[C@H]1C2` [Example 388], the efflux ratio at 2 h, 1 µM on BCRP amounted to 1.8; at MDR1 (P-gp), 3.2. The IC50 is 1700 nM at EGFR wild type (EGFR WT) (setting [3]), 28.1 nM in data set [1] (setting [4]), 40.7 nM on ErbB2 WT (ErbB2 WT enzyme assay) and 1800 nM at EGFR (EGFR enzyme assay).

On to `C=CC(=O)N1CC[C@@H]2C[C@H](c3ccc4ncnc(Nc5cc(C)c(Oc6ccn7ncnc7c6)cc5F)c4n3)C[C@@H]21` (single isomer, unassigned) [Example 225], for which the values for the efflux ratio at 2 h, 1 µM on BCRP and on MDR1 (P-gp) were 2 and 1.2, respectively. For the same compound, the concentration for half-maximal inhibition (IC50) was 768 nM against EGFR wild type (EGFR WT) (setting [2]), 8.4 nM in data set [1] (ErbB2 YVMA phosphorylation), 26.5 nM against ErbB2 WT (ErbB2 WT enzyme) and 422 nM at EGFR (EGFR enzyme).

`C=CC(=O)N1C[C@H](c2ccc3ncnc(Nc4ccc(Oc5ccn6ncnc6c5)c(C)c4F)c3n2)C[C@@H]1C1CC1` (racemic) [Example 302]: the figures for the efflux ratio at 2 h, 1 µM at BCRP and at MDR1 (P-gp) were 3.5 and 1.3, respectively. In addition, the IC50 against EGFR wild type (EGFR WT) (setting [3]) worked out at 1450 nM; in data set [1] (setting [4]) it was 17.4 nM; against ErbB2 WT (ErbB2 WT enzyme assay), 8.2 nM; against EGFR (EGFR enzyme assay), 712 nM.

With `C=CC(=O)N1CCN(c2ccc3ncnc(Nc4cc(C)c(Oc5ccc6c(c5)ncn6C)cc4F)c3n2)C[C@@H]1C1CC1` [Example 252], the efflux ratio at 2 h, 1 µM at BCRP came out at 2.9; at MDR1 (P-gp), 1. Also, the IC50 at EGFR wild type (EGFR WT) (setting [3]) was at least 5000 nM; in data set [1] (setting [4]) it was 21.1 nM; on ErbB2 WT (ErbB2 WT enzyme assay), 170 nM; on EGFR (EGFR enzyme assay), 4580 nM.

With `C=CC(=O)N1CCN(c2ccc3ncnc(Nc4cc(C)c(Oc5ccc6c(c5)ncn6C)cc4F)c3n2)CC1(C)C` [Example 82, 1-(4-(4-((2-fluoro-5-methyl-4-((1-methyl-1H-benzo[d]imidazol-5-yl)oxy)phenyl)amino)pyrido[3,2-d]pyrimidin-6-yl)-2,2-dimethylpiperazin-1-yl)prop-2-en-1-one], the efflux ratio at 2 h, 1 µM on BCRP amounted to 3.9; at MDR1 (P-gp), 2. Besides, the IC50 at EGFR wild type (EGFR WT) (setting [2]) is 4400 nM; in data set [1] (ErbB2 YVMA phosphorylation), 12.6 nM; on ErbB2 WT (ErbB2 WT enzyme) it was 58.2 nM; at EGFR (EGFR enzyme), 7320 nM.

With `C=CC(=O)N1C[C@@H]2CC[C@H]1CN2c1ccc2ncnc(Nc3cc(C)c(Oc4ccn5ncnc5c4)cc3F)c2n1` [Example 319], the efflux ratio at 2 h, 1 µM was 3.6 on BCRP and 4.8 on MDR1 (P-gp). The IC50 turned out to be 264 nM against EGFR wild type (EGFR WT) (setting [3]), 5.7 nM in data set [1] (setting [4]), 8.1 nM at ErbB2 WT (ErbB2 WT enzyme assay) and 192 nM on EGFR (EGFR enzyme assay).

Take `C=CC(=O)N1CCN(c2ccc3ncnc(Nc4cc(Cl)c(Oc5ccn6ncnc6c5)cc4F)c3n2)CC1(C)C` [Example 326]: the efflux ratio at 2 h, 1 µM on BCRP was found to be 2.1; on MDR1 (P-gp) it was 1.5. Besides, the IC50 against EGFR wild type (EGFR WT) (setting [3]) amounted to 961 nM; in data set [1] (setting [4]) it was 19.7 nM; against ErbB2 WT (ErbB2 WT enzyme assay), 18.7 nM; against EGFR (EGFR enzyme assay) it was 2860 nM.

Turning to `C=CC(=O)N1CCN(c2ccc3ncnc(Nc4ccc(Oc5cnc6c(c5)ncn6C)c(Cl)c4F)c3n2)CC1(C)C` [Example 239, 1-(4-(4-((3-chloro-2-fluoro-4-((3-methyl-3H-imidazo[4,5-b]pyridin-6-yl)oxy)phenyl)amino)pyrido[3,2-d]pyrimidin-6-yl)-2,2-dimethylpiperazin-1-yl)prop-2-en-1-one], the efflux ratio at 2 h, 1 µM at BCRP was 5.2; at MDR1 (P-gp), 1.8. The half-maximal inhibitory concentration (IC50) was determined as 2250 nM against EGFR wild type (EGFR WT) (setting [2]), 24.3 nM in data set [1] (ErbB2 YVMA phosphorylation), 36.7 nM against ErbB2 WT (ErbB2 WT enzyme) and 955 nM at EGFR (EGFR enzyme).

For the compound `C=CC(=O)N1[C@@H]2CCC[C@H]1[C@@H](c1ccc3ncnc(Nc4ccc(Oc5ccn6ncnc6c5)c(C)c4F)c3n1)C2` [Example 415], the efflux ratio at 2 h, 1 µM was 1.8 at BCRP and 1 at MDR1 (P-gp). In addition, the IC50 was at least 5000 nM at EGFR wild type (EGFR WT) (setting [3]), 32 nM in data set [1] (setting [4]), 9.8 nM against ErbB2 WT (ErbB2 WT enzyme assay) and 247 nM at EGFR (EGFR enzyme assay).

Consider `C=CC(=O)N1C2CC1CN(c1ccc3ncnc(Nc4ccc(Oc5ccn6ncnc6c5)c(Cl)c4F)c3n1)C2` [Example 25, 1-(3-(4-((4-([1,2,4]triazolo[1,5-a]pyridin-7-yloxy)-3-chloro-2-fluorophenyl)amino)pyrido[3,2-d]pyrimidin-6-yl)-3,6-diazabicyclo[3.1.1]heptan-6-yl)prop-2-en-1-one], for which the results for the efflux ratio at 2 h, 1 µM at BCRP and on MDR1 (P-gp) were 6.8 and 2.2, respectively. Also, the IC50 was 324 nM against EGFR wild type (EGFR WT) (setting [2]), 12.1 nM in data set [1] (ErbB2 YVMA phosphorylation), 50.1 nM on ErbB2 WT (ErbB2 WT enzyme) and 558 nM at EGFR (EGFR enzyme).

On to `C=CC(=O)N1CC[C@H]2CN(c3ccc4ncnc(Nc5ccc(Oc6ccn7ncnc7c6)c(Cl)c5F)c4n3)C[C@H]21` [Example 49, 1-((3aS,6aS)-5-(4-((4-([1,2,4]triazolo[1,5-a]pyridin-7-yloxy)-3-chloro-2-fluorophenyl)amino)pyrido[3,2-d]pyrimidin-6-yl)hexahydropyrrolo[3,4-b]pyrrol-1(2H)-yl)prop-2-en-1-one], for which the efflux ratio at 2 h, 1 µM at BCRP amounted to 3; on MDR1 (P-gp), 1.5. Moreover, the IC50 worked out at 2810 nM at EGFR wild type (EGFR WT) (setting [2]), 10.5 nM in data set [1] (ErbB2 YVMA phosphorylation), 18.6 nM against ErbB2 WT (ErbB2 WT enzyme) and 1170 nM against EGFR (EGFR enzyme).

As to `C=CC(=O)N1CC[C@@H]2C[C@H]1CN2c1ccc2ncnc(Nc3cc(Cl)c(Oc4ccn5ncnc5c4)cc3F)c2n1` [Example 177, 1-((1 S,5R)-6-(4-((4-([1,2,4]triazolo[1,5-a]pyridin-7-yloxy)-5-chloro-2-fluorophenyl)amino)pyrido[3,2-d]pyrimidin-6-yl)-2,6-diazabicyclo[3.2.1]octan-2-yl)prop-2-en-1-one], the efflux ratio at 2 h, 1 µM on BCRP came out at 3.6; at MDR1 (P-gp), 1.9. The IC50 against EGFR wild type (EGFR WT) (setting [2]) was determined as 156 nM; in data set [1] (ErbB2 YVMA phosphorylation), 5.7 nM; on ErbB2 WT (ErbB2 WT enzyme), 9.7 nM; at EGFR (EGFR enzyme), 129 nM.

As for `C=CC(=O)N1[C@@H]2CC[C@H]1[C@H](c1ccc3ncnc(Nc4cc(C)c(Oc5ccc6c(c5)ncn6C)cc4F)c3n1)C2` [Example 393], the values for the efflux ratio at 2 h, 1 µM at BCRP and at MDR1 (P-gp) were 2.2 and 1.8, respectively. In addition, the IC50 is at least 5000 nM against EGFR wild type (EGFR WT) (setting [3]), 15.4 nM in data set [1] (setting [4]), 13.4 nM at ErbB2 WT (ErbB2 WT enzyme assay) and 715 nM on EGFR (EGFR enzyme assay).

Regarding `C=CC(=O)N1[C@@H]2CC[C@H]1[C@H](c1ccc3ncnc(Nc4ccc(Oc5ccn6ncnc6c5)c(Cl)c4F)c3n1)C2` [Example 404], the efflux ratio at 2 h, 1 µM at BCRP came out at 5.2; at MDR1 (P-gp), 1.2. Moreover, the 50% inhibitory concentration (IC50) was at least 5000 nM at EGFR wild type (EGFR WT) (setting [3]), 11.5 nM in data set [1] (setting [4]), 7.2 nM against ErbB2 WT (ErbB2 WT enzyme assay) and 104 nM against EGFR (EGFR enzyme assay).

With `C=CC(=O)N1CCC(Oc2ccc3ncnc(Nc4ccc(Oc5ccn6ccnc6c5)c(C)c4)c3n2)CC1` [Example 15, 1-(4-((4-((4-(imidazo[1,2-a]pyridin-7-yloxy)-3-methylphenyl)amino)pyrido[3,2-d]pyrimidin-6-yl)oxy)piperidin-1-yl)prop-2-en-1-one], the half-maximal inhibitory concentration (IC50) stood at 555 nM at EGFR wild type (EGFR WT) (setting [2]), 12.8 nM in data set [1] (ErbB2 YVMA phosphorylation), 45.5 nM against ErbB2 WT (ErbB2 WT enzyme) and 1680 nM against EGFR (EGFR enzyme). Besides, the efflux ratio at 2 h, 1 µM on MDR1 (P-gp) was 10.2.

As for `C=CC(=O)N1CCC(Oc2ccc3ncnc(Nc4ccc(Oc5cc6nn(C)cc6cn5)c(C)c4)c3n2)CC1` [Example 52, 1-(4-((4-((3-methyl-4-((2-methyl-2H-pyrazolo[4,3-c]pyridin-6-yl)oxy)phenyl)amino)pyrido[3,2-d]pyrimidin-6-yl)oxy)piperidin-1-yl)prop-2-en-1-one], the IC50 on EGFR wild type (EGFR WT) (setting [2]) is at least 5000 nM; in data set [1] (ErbB2 YVMA phosphorylation), 34.7 nM; against ErbB2 WT (ErbB2 WT enzyme), 395 nM; against EGFR (EGFR enzyme) it was at least 10000 nM. Moreover, the efflux ratio at 2 h, 1 µM on MDR1 (P-gp) came out at 34.5.
